Measured values from ChEMBL document CHEMBL4000164, “(+)-and (-)-Phenazocine enantiomers: Evaluation of their dual opioid agonist/σ1 antagonist properties and antinociceptive effects” (Eur J Med Chem, 2017).
Active and inactive are the calls of the source. The calls are words filed in the database; no cut-off is given here.

How the values were obtained:
Mus musculus [1] = assay: Antinociceptive activity in CD-1 mouse mechanical stimulus-induced nociception model assessed as struggle response latency at 2 to 8 mg/kg, sc administered 30 mins prior to test by paw pressure test; type: functional, organism-based
[2] = biological target: T1, Kappa-type opioid receptor (Cavia porcellus, UniProt P41144); assay: Displacement of [3H]U69,593 from kappa opioid receptor in guinea pig brain membranes by liquid scintillation counter method; type: cell membranes, Membrane
Mus musculus [3] = assay: Antinociceptive activity in CD-1 mouse mechanical stimulus-induced nociception model assessed as struggle response latency at 4 mg/kg, sc administered 30 mins prior to test in presence of centrally penetrant opioid antagonist Nx by paw pressure test; type: functional, organism-based
Mu-type opioid receptor [4] = biological target: Mu-type opioid receptor (Rattus norvegicus, UniProt P33535); assay: Displacement of [3H] DAMGO from mu opioid receptor in Sprague-Dawley rat whole brain membranes after 2.5 hrs by liquid scintillation method; parameters: species or system Membrane
Mus musculus [5] = assay: Antinociceptive activity in CD-1 mouse mechanical stimulus-induced nociception model assessed as struggle response latency at 4 mg/kg, sc administered 30 mins prior to test in presence of sigma1 receptor agonist PRE-084 by paw pressure test; type: functional, organism-based
[6] = biological target: Delta-type opioid receptor (Rattus norvegicus, UniProt P33533); assay: Displacement of [3H]DPDPE from delta opioid receptor in Sprague-Dawley rat brain membranes by liquid scintillation counter method; type: cell membranes, Membrane
Mus musculus [7] = assay: Antinociceptive activity in CD-1 mouse mechanical stimulus-induced nociception model assessed as struggle response latency at 4 mg/kg, sc administered 30 mins prior to test in presence of peripherally restricted opioid antagonist Nx-M by paw pressure test; type: functional, organism-based
Mus musculus [8] = assay: Antinociceptive activity in sc dosed CD-1 mouse mechanical stimulus-induced nociception model assessed as struggle response latency administered 30 mins prior to test by paw pressure test; type: functional, organism-based
Mus musculus [9] = assay: Analgesic activity in mouse administered subcutaneously by hot plate assay; details: sc
Mus musculus [10] = assay: Antinociceptive activity in CD-1 mouse mechanical stimulus-induced nociception model assessed as struggle response latency at 8 mg/kg, sc administered 30 mins prior to test in presence of peripherally restricted opioid antagonist Nx-M by paw pressure test; type: functional, organism-based
Mus musculus [11] = assay: Antinociceptive activity in CD-1 mouse mechanical stimulus-induced nociception model assessed as struggle response latency at 8 mg/kg, sc administered 30 mins prior to test in presence of centrally penetrant opioid antagonist Nx by paw pressure test; type: functional, organism-based
Mus musculus [12] = assay: Antinociceptive activity in CD-1 mouse mechanical stimulus-induced nociception model assessed as struggle response latency at 8 mg/kg, sc administered 30 mins prior to test in presence of sigma1 receptor agonist PRE-084 by paw pressure test; type: functional, organism-based
[13] = biological target: Delta-type opioid receptor (Homo sapiens, UniProt P41143); assay: Binding affinity to delta opioid receptor (unknown origin)
[14] = biological target: Kappa-type opioid receptor (Homo sapiens, UniProt P41145); assay: Binding affinity to kappa opioid receptor (unknown origin)
[15] = Displacement of [3H]-[D-Ala2,D-Leu5]enkephalin from delta opioid receptor in guinea pig brain membranes after 40 mins; type: cell membranes, Cavia porcellus, Membrane
Mu-type opioid receptor [16] = biological target: Mu-type opioid receptor (Cavia porcellus, UniProt P97266); assay: Displacement of [3H]-[D-Ala2,MePhe4Gly-ol5]enkephalin from mu opioid receptor in guinea pig brain membranes after 40 mins; type: cell membranes, Membrane
[17] = biological target: Sigma non-opioid intracellular receptor 1 (Mus musculus, UniProt O55242); assay: Displacement of [3H]-(+)-pentazocin from sigma1 receptor in mouse brain P2 membranes after 240 mins by liquid scintillation counting method; type: cell membranes
[18] = biological target: T1, Kappa-type opioid receptor; assay: Displacement of [3H]-Ethylketazocine from kappa opioid receptor in guinea pig brain membranes after 40 mins; type: cell membranes, Membrane
Mus musculus [19] = assay: Antinociceptive activity in CD-1 mouse mechanical stimulus-induced nociception model assessed as struggle response latency at 0.25 mg/kg, sc administered 30 mins prior to test in presence of peripherally restricted opioid antagonist Nx-M by paw pressure test; type: functional, organism-based
Mus musculus [20] = assay: Antinociceptive activity in CD-1 mouse mechanical stimulus-induced nociception model assessed as struggle response latency time at 0.5 mg/kg, sc administered 30 mins prior to test by paw pressure test; type: functional
Mus musculus [21] = assay: Antinociceptive activity in CD-1 mouse mechanical stimulus-induced nociception model assessed as struggle response latency time at 0.5 mg/kg, sc administered 30 mins prior to test in presence of centrally penetrant opioid antagonist Nx by paw pressure test; type: functional, organism-based
Mus musculus [22] = assay: Antinociceptive activity in CD-1 mouse mechanical stimulus-induced nociception model assessed as struggle response latency time at 0.5 mg/kg, sc administered 30 mins prior to test in presence of peripherally restricted opioid antagonist Nx-M by paw pressure test; type: functional, organism-based
Mus musculus [23] = assay: Antinociceptive activity in CD-1 mouse mechanical stimulus-induced nociception model assessed as struggle response latency at 0.25 mg/kg, sc administered 30 mins prior to test in presence of centrally penetrant opioid antagonist Nx by paw pressure test; type: functional, organism-based
Mus musculus [24] = assay: Antinociceptive activity in CD-1 mouse mechanical stimulus-induced nociception model assessed as struggle response latency at 0.125 to 0.5 mg/kg, sc administered 30 mins prior to test by paw pressure test; type: functional, organism-based
Mus musculus [25] = assay: Antinociceptive activity in CD-1 mouse mechanical stimulus-induced nociception model assessed as struggle response latency at 0.25 mg/kg, sc administered 30 mins prior to test in presence of sigma1 receptor agonist PRE-084 by paw pressure test; type: functional, organism-based
Mus musculus [26] = assay: Antinociceptive activity in CD-1 mouse mechanical stimulus-induced nociception model assessed as struggle response latency time at 0.5 mg/kg, sc administered 30 mins prior to test in presence of sigma1 receptor agonist PRE-084 by paw pressure test; type: functional, organism-based

T1 sequence (P41144 whole entry): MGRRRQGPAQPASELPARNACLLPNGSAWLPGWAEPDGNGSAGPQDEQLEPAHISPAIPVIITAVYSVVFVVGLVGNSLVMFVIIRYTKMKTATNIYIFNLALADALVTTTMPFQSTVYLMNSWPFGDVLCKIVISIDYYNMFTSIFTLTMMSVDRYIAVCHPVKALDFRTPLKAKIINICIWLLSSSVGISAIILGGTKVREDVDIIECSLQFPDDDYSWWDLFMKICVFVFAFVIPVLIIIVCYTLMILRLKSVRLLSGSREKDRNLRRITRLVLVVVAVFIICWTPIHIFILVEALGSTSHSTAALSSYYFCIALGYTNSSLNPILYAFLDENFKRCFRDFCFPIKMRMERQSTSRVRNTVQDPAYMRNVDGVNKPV
Chain of Mu-type opioid receptor (Rattus norvegicus, UniProt P33535) (P33535 whole entry): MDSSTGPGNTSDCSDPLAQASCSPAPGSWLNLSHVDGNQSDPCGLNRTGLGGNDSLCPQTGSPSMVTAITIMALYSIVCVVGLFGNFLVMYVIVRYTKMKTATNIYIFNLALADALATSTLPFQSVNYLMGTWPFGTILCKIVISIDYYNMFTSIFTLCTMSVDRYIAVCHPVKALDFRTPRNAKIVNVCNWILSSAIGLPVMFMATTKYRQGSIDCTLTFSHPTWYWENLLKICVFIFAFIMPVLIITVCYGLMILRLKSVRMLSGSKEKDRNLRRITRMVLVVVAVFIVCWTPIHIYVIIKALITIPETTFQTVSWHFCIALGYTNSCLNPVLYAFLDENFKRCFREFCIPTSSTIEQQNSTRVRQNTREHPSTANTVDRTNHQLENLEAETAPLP
Chain of Delta-type opioid receptor (Homo sapiens, UniProt P41143) (P41143 whole entry): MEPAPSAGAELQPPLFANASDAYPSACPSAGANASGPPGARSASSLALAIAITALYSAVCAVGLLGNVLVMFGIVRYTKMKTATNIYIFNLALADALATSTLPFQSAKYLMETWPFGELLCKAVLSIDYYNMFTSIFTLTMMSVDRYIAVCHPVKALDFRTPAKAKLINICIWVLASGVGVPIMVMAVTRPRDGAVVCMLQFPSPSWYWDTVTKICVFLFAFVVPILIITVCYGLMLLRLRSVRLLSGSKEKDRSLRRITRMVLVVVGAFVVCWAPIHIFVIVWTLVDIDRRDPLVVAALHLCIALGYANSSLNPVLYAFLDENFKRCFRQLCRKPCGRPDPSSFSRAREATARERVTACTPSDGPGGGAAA
Chain of Kappa-type opioid receptor (Homo sapiens, UniProt P41145) (P41145 whole entry): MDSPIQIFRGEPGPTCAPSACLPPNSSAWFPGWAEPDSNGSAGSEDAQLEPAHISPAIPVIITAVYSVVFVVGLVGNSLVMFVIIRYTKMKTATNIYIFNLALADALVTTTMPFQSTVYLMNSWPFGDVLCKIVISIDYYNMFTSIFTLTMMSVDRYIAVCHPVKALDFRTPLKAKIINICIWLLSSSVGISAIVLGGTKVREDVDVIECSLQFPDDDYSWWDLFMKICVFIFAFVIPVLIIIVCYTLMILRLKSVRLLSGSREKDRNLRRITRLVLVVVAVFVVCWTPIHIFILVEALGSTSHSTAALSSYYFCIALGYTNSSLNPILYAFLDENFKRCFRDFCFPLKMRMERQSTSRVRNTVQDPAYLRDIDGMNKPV
Chain of Mu-type opioid receptor (Cavia porcellus, UniProt P97266) (P97266 whole entry): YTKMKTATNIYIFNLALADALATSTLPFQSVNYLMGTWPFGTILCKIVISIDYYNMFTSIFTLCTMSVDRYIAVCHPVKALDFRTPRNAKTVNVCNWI
Chain of Delta-type opioid receptor (Rattus norvegicus, UniProt P33533) (P33533 whole entry): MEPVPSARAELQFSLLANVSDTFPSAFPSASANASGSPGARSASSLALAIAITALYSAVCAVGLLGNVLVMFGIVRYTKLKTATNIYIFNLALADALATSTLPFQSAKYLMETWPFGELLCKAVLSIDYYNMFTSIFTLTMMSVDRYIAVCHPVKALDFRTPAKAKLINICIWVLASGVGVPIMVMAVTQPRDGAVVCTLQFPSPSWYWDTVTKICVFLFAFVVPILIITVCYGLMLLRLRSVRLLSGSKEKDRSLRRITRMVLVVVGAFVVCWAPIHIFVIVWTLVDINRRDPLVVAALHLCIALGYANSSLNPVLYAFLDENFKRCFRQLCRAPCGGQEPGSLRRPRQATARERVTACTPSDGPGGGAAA
Chain of Sigma non-opioid intracellular receptor 1 (O55242 whole entry): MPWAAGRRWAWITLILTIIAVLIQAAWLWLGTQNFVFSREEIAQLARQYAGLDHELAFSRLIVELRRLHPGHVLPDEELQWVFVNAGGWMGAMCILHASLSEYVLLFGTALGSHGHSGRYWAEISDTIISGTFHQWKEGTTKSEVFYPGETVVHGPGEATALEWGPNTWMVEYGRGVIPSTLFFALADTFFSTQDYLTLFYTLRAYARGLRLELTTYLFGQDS

For C[C@@H]1[C@@H]2Cc3ccc(O)cc3[C@@]1(C)CCN2CCc1ccccc1, the Activity (Mus musculus [1]) was “Active”, the Ki [2] was 175 nM and the Activity (Mus musculus [3]) was “inactive”. For the same compound, the Ki (Mu-type opioid receptor [4]) was 3.9 nM, the Activity (Mus musculus [5]) was “inactive” and the Ki [6] was 123 nM. The Activity (Mus musculus [7]) was “inactive”.
In the case of CN1CC[C@]23c4c5ccc(O)c4O[C@H]2[C@@H](O)C=C[C@H]3[C@H]1C5 [MORPHINE], the Activity (Mus musculus [8]) is reported as “Dose-dependent effect”, the ED50 (Mus musculus [9]) is reported as 6.7 mg/kg and the Activity (Mus musculus [10]) is reported as “Active”. For the same compound, the Activity (Mus musculus [11]) was “inactive” and the Activity (Mus musculus [12]) was “Active”.
With O=C(OCCN1CCOCC1)C1(c2ccccc2)CCCCC1 the Ki [13] was over 4000 nM and the Ki [14] was over 4000 nM.
With C=CC[N+]1(C)CC[C@]23c4c5ccc(O)c4O[C@H]2C(=O)CC[C@@]3(O)[C@H]1C5 (some centres not stated) [NALOXONE METHIODIDE] the Ki [15] was 291 nM, the Ki (Mu-type opioid receptor [16]) was 18.2 nM and the Ki [17] was over 1000 nM. It also gave a Ki [18] of 187 nM.
With C[C@H]1[C@H]2Cc3ccc(O)cc3[C@]1(C)CCN2CCc1ccccc1 the Activity (Mus musculus [19]) was “inactive”, the Time (Mus musculus [20]) was 20 s and the Activity (Mus musculus [21]) was “inactive”. For the same compound, the Activity (Mus musculus [22]) was “inactive”, the Activity (Mus musculus [23]) was “inactive” and the Activity (Mus musculus [24]) was “Active”. The Activity (Mus musculus [25]) was “inactive”, the Ki (Mu-type opioid receptor [4]) was 61.7 nM and the Activity (Mus musculus [26]) was “inactive”.
